The source of these data is patent US20120171123A1, “USES AND COMPOSITIONS FOR TREATMENT OF RHEUMATOID ARTHRITIS” (priority 2006, published 2012).

What all share (format): in vivo, human
The test system of one experiment is adult patients with RA. The experiment in a line: Study 1: DAS28 change by CRP category. On the procedure: 407 patients with active RA enrolled in the 2 study arms. Of these patients, 299 (73.5%) patients completed the study until Week 52 and were evaluated.
Patients were grouped into three cohorts based on baseline CRP concentrations: low (<1 mg/dL); intermediate (1-4 mg/dL); and high (>4 mg/dL). Analyses were further conducted in two categories of patients according to their change in CRP concentrations at Week 12: those with a ≧20% decrease in CRP from baseline; or those with a <20% decrease in CRP from baseline. The following efficacy and radiographic measures were analyzed at Week 52 in the three baseline CRP categories and in the two Week 12 change in CRP categories: DAS28, ACR 20/50/70, Health assessment questionnaire (HAQ), and Total Sharp score (TSS).

Experiment [1] deals with MTX-naïve adult patients with early RA (<3 years). In words: Study J: HAQ DI. The settings on record: for HAQ DI mean change from baseline: LOCF. The text has this: The Health Assessment Questionnaire Disability Index (HAQ DI) is a disease-specific tool that measures patient-reported physical function in 8 categories corresponding to normal activities in daily living. Fatigue is an important yet still often overlooked systemic symptom of RA. The Functional Assessment of Chronic Illness Therapy-Fatigue (FACIT-F) tool, measured by a 13-item, validated scale, assesses the impact of a disease and its therapy on fatigue.
Study J is described in detail in the above examples. The Health Assessment Questionnaire Disability Index (HAQ DI) and Functional Assessment of Chronic Illness Therapy-Fatigue (FACIT-F) were assessed at baseline, and following 12, 26, 42, 52, 76, and 104 weeks of therapy. Changes in scores were computed by subtracting the baseline from post-treatment score for each patient; mean changes were reported for each treatment group. The HAQ DI is assessed on a scale of 0-3, with higher numbers indicating greater disability. The minimum clinically important difference (MCID) is defined as changes ≧0.22 (Goldsmith C H, et al. J Rheumatol 1993; 20-561-5). The FACIT-F is assessed on a scale of 0-52, with higher scores indicating less fatigue. Changes of ≧4 are considered clinically meaningful (Cella D, et al. J Pain Symptom Manage 2002:24:547-61).

The test system of another experiment is patients with active RA. In words: Low-field MRI follow-up of finger joint inflammation (OMERACT-based scores, ESR, DAS28), Study A subset. The method, then: The method included the following. […] Proximal interphalangeal and metacarpophalangeal joints of the dominant hands of these patients were examined by 0.2-Tesla MRI (C-Scan, Esaote, Italy). Clinical examinations and MRI were performed at baseline and during therapy for a mean period of 86 days (range: 42-126 days). The used sequences were coronal T1-weighted spin-echo; coronal short-tau inversion-recovery gradient-echo; and T1-weighted, 3D gradient-echo before and after administration of Gd-DTPA (0.2 mmol/kg body weight). Erythrocyte sedimentation rate (ESR) and Disease Activity Score 28 (DAS28) were measured at all time points. MRI was evaluated according to an Outcome Measures in Arthritis Clinical Trials or OMERACT-based semiquantitative scoring system. Scores were calculated for erosions (0-5 scale, maximum of 40), synovitis (0-3 scale, maximum of 24), and tenosynovitis (0-3 scale, maximum of 12).

Experiment [2] deals with patients with RA who had failed prior treatment with infliximab. The experiment in a line: Adalimumab after failed infliximab (16-week study): DAS28. To be noted: for Change in DAS28, mean change from baseline: 16 wk. The text has this: (§1) Patients eligible to participate in the study included those with long-standing, moderate to severe RA who had terminated infliximab therapy because of lack or loss of efficacy and/or intolerance/side effects. […] Follow-up visits for safety and efficacy monitoring were scheduled at 2, 8, and 16 weeks. […] Efficacy parameters included TJC28 and SJC28; DAS28; ACR20, ACR50 Response; Moderate EULAR response; and HAQ. Subgroup analysis by reason for discontinuation included: • in case of discontinuation due to lack or loss of efficacy, patients were counted in the corresponding group regardless of additional cause of intolerance. • The subgroup “Discontinuation due to intolerance” was exclusive.

For experiment [3] the test system is unchanged. The experiment in a line: Adalimumab after failed infliximab: TJC28 and SJC28. To be noted: 16 wk.
From the text: as §1

A further experiment concerns patients with RA. In words: RAPID (routine Apgar-like patient index datasheet) score in 4 adalimumab clinical trials. The settings on record: for RAPID (R326), Difference: baseline vs endpoint. On the procedure: All 1,391 patients in these trials were evaluated in this study. The RAPID index is based on patient self-report data on a Health Assessment Questionnaire (HAQ), recalibrated to 0-10, based on the following criteria: physical function (0-3): 0=0-0.25, 1=0.26-0.75, 2=0.76-1.5, and 3=1.51-3.0; pain visual analog scale (VAS) (0-3): 0=0-10, 1=11-30, 2=31-60, and 3=61-100; and patient's global status VAS (0-4): 0=0-10, 1=11-25, 2=26-50, 3=51-75, and 4=76-100. All patients were classified at baseline as having a DAS28<5.1 or ≧5.1 or RAPID <5.0 or ≧5.0, the higher values for each indicating severe disease. DAS28 was calculated using swollen joint count, tender joint count, patient's global assessment of disease activity and C-reactive protein (CRP) concentration. Spearman rank correlations and box plots to compare RAPID scores with DAS28 were also analyzed.
Several rescalings of the physical function, pain, and patient's global assessment scales were calculated. The physical function scale is scored 0-3, and was rescaled to 0-3. The pain visual analog scale (VAS) is scored 0-10 and was also rescaled to 0-3. The global VAS is scored 0-10 and was rescaled to 0-4. Thus, the total of the 3 scores ranges from 0-10. Scores were calculated for both continuous and categorical indices. The DAS28 was calculated from the SJC, TJC, patient's global score, and C-reactive protein.

Setting [4] is: all reasons for infliximab withdrawal (N=37).
The mark [5] stands for this setting: no response to infliximab (N=13).
Where [6] appears, read: loss of response to infliximab (N=19).
[7] abbreviates: Study 2 (adalimumab monotherapy).
[8] abbreviates: Study K (adalimumab with other DMARDs).

On to `CN(Cc1cnc2nc(N)nc(N)c2n1)c1ccc(C(=O)N[C@@H](CCC(=O)O)C(=O)O)cc1` [mtx alone, methotrexate], for which the DAS28 mean change in the experiment with adult patients with RA (week 52, baseline CRP 1-4 mg/dL) is −1.2; in the experiment on adult patients with RA (week 52, baseline CRP <1 mg/dL), −1.3; with adult patients with RA (week 52, baseline CRP >4 mg/dL), −1.7. In addition, the “HAQ DI mean score” value in experiment [1] (Baseline) was 1.48. The “HAQ DI mean change from baseline” value is listed as −0.53 in experiment [1] (ΔWeek 12); −0.67 in experiment [1] (ΔWeek 26); −0.68 in experiment [1] (ΔWeek 42); −0.69 in experiment [1] (ΔWeek 52); −0.68 in experiment [1] (ΔWeek 76); −0.68 in experiment [1] (ΔWeek 104).
On to “adalimumab: human anti-TNF mAb (HUMIRA, Abbott Laboratories), described in U.S. Pat. No. 6,090,382 as D2E7”, for which the “mean ESR” value in the experiment with patients with active RA (after therapy (33.0 before)) is recorded as 16.2 mm/hr. Besides, in the experiment with patients with active RA (after therapy (baseline 6.1)), the “mean DAS28” value is reported as 3.8. The “median tenosynovitis MRI score (max 12)” value in the experiment with patients with active RA (during therapy (baseline 3)) is recorded as 1.5. Further, in the experiment on patients with active RA (during therapy (baseline 6.5), not significant), the “median erosion MRI score (max 40)” value was 4.5. For the same compound, in the experiment with patients with active RA (during therapy, mean 86 days (baseline 11), n=16), the “median synovitis MRI score (max 24)” value was 9. Moreover, the “Change in DAS28, mean change from baseline” value in experiment [2] (setting [4]) is −1.6; in experiment [2] (infliximab intolerance (N=5)), −1.4; in experiment [2] (setting [5]), −1.0. In addition, the “maximum change in DAS28” value in experiment [2] (week 16) was −4.7. For the same compound, the “patients with a decrease in DAS28 of ≧1.2” value in experiment [2] (week 16, completers (21 of 37)) was 57%. For the same compound, the “Change in SJC (0-28), mean change from baseline” value in experiment [3] (setting [4]) is −5.2; in experiment [3] (infliximab intolerance (N=5)) it was −7.8; in experiment [3] (setting [6]), −6.1; in experiment [3] (setting [5]), −2.8. The “Change in TJC (0-28), mean change from baseline” value in experiment [3] (setting [4]) is recorded as −7.4; in experiment [3] (infliximab intolerance (N=5)), −10.0; in experiment [3] (setting [6]) it was −8.2; in experiment [3] (setting [5]) it was −5.1. Also, the “RAPID (R326), Endpoint” value in the experiment with patients with RA (Study 1 (adalimumab with MTX)) came to 3.86; with patients with RA (setting [7]), 5.88; in the experiment with patients with RA (Study I (adalimumab with MTX)) it was 3.84; in the experiment with patients with RA (setting [8]) it was 4.22. The “RAPID (R326), Difference” value with patients with RA (Study 1 (adalimumab with MTX)) came out at 3.22; in the experiment on patients with RA (setting [7]), 2.70; in the experiment on patients with RA (Study I (adalimumab with MTX)), 3.43; in the experiment with patients with RA (setting [8]), 2.79.
